PubChem BioAssay AID328 (DTP/NCI, 2004)
“And” between values parts separate entries of the source, which are not always exact repeats. Equal values may be shown once. Toxic doses and inconclusive results are not listed.

Tested on: BDF1 mice, P388 leukemia ip, median survival T/C
Test: NCI In Vivo Anticancer Drug Screen. Data for tumor model P388 Leukemia (intraperitoneal) in B6D2F1 (BDF1) mice
Conditions: endpoint: median survival time, higher = longer survival
Outline: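 Transplantable tumour in mice; compound vs vehicle dosing; survival scored; ratio of treated to control reported.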

**Q.** For `CC[C@]1(O)C[C@H]2CN(CCc3c([nH]c4ccccc34)[C@@](C(=O)OC)(c3cc4c(cc3OC)N(C=O)[C@H]3[C@@](O)(C(=O)OC)[C@H](OC(C)=O)[C@]5(CC)C=CCN6CC[C@]43[C@@H]65)C2)C1`, which T/C (dose: 0.03 mg/kg/injection, schedule: Q01DX009 (ip), vehicle: water) is on record?
**A.** 86 % of control

**Q.** And the T/C (dose: 0.03 mg/kg/injection, schedule: Q01DX010 (ip), vehicle: saline)?
**A.** 163 % of control and 172 % of control (2×)

**Q.** And the T/C (dose: 0.06 mg/kg/injection, schedule: Q04DX003 (ip), vehicle: water)?
**A.** 90 % of control

**Q.** What about the T/C (dose: 0.08 mg/kg/injection, schedule: Q01DX009 (ip), vehicle: saline) of the same compound?
**A.** 172 % of control

**Q.** And the T/C (dose: 0.12 mg/kg/injection, schedule: Q01DX009 (ip), vehicle: saline)?
**A.** 300 % of control

**Q.** What about the T/C (dose: 0.13 mg/kg/injection, schedule: Q01DX010 (ip), vehicle: saline) of the same compound?
**A.** 168 % of control

**Q.** And the T/C (dose: 0.2 mg/kg/injection, schedule: Q01DX009 (ip), vehicle: saline)?
**A.** 231 % of control and 277 % of control

**Q.** And the T/C (dose: 0.2 mg/kg/injection, schedule: Q04DX002 (ip), vehicle: saline)?
**A.** 163 % of control

**Q.** And the T/C (dose: 0.22 mg/kg/injection, schedule: Q01DX009 (ip), vehicle: clinical formulation)?
**A.** 245 % of control

**Q.** What about the T/C (dose: 0.25 mg/kg/injection, schedule: Q01DX009 (ip), vehicle: saline) of the same compound?
**A.** 275 % of control

**Q.** And the T/C (dose: 0.25 mg/kg/injection, schedule: Q01DX010 (ip), vehicle: saline)?
**A.** 240 % of control and 254 % of control and 163 % of control

**Q.** What about the T/C (dose: 0.3 mg/kg/injection, schedule: Q01DX009 (ip), vehicle: saline) of the same compound?
**A.** 289 % of control and 500 % of control

**Q.** And the T/C (dose: 0.3 mg/kg/injection, schedule: Q04DX003 (ip), vehicle: saline)?
**A.** 186 % of control

**Q.** And the T/C (dose: 0.45 mg/kg/injection, schedule: Q01DX009 (ip), vehicle: saline)?
**A.** 278 % of control and 336 % of control

**Q.** What about the T/C (dose: 0.48 mg/kg/injection, schedule: Q04DX003 (ip), vehicle: saline) of the same compound?
**A.** 232 % of control and 150 % of control

**Q.** And the T/C (dose: 0.5 mg/kg/injection, schedule: Q01DX009 (ip), vehicle: saline)?
**A.** 90 % of control

**Q.** And the T/C (dose: 0.5 mg/kg/injection, schedule: Q01DX010 (ip), vehicle: saline)?
**A.** 86 % of control and 90 % of control

**Q.** And the T/C (dose: 0.5 mg/kg/injection, schedule: Q04DX003 (ip), vehicle: water)?
**A.** 177 % of control

**Q.** And the T/C (dose: 0.53 mg/kg/injection, schedule: Q04DX003 (ip), vehicle: saline)?
**A.** 183 % of control

**Q.** And the T/C (dose: 0.8 mg/kg/injection, schedule: Q04DX003 (ip), vehicle: clinical formulation)?
**A.** 236 % of control

**Q.** What about the T/C (dose: 1.0 mg/kg/injection, schedule: Q01DX001 (ip), vehicle: water) of the same compound?
**A.** 153 % of control

**Q.** And the T/C (dose: 1.0 mg/kg/injection, schedule: Q04DX003 (ip), vehicle: water)?
**A.** 227 % of control

**Q.** What about the T/C (dose: 1.0 mg/kg/injection, schedule: Q04DX004 (ip), vehicle: saline) of the same compound?
**A.** 233 % of control

**Q.** And the T/C (dose: 1.1 mg/kg/injection, schedule: Q04DX003 (ip), vehicle: saline)?
**A.** 532 % of control and 180 % of control

**Q.** And the T/C (dose: 1.2 mg/kg/injection, schedule: Q04DX003 (ip), vehicle: clinical formulation)?
**A.** 240 % of control

**Q.** What about the T/C (dose: 1.3 mg/kg/injection, schedule: Q04DX003 (ip), vehicle: saline) of the same compound?
**A.** 250 % of control

**Q.** And the T/C (dose: 1.5 mg/kg/injection, schedule: Q04DX004 (ip), vehicle: saline)?
**A.** 252 % of control

**Q.** And the T/C (dose: 1.56 mg/kg/injection, schedule: Q04DX002 (ip), vehicle: saline)?
**A.** 90 % of control

**Q.** And the T/C (dose: 1.65 mg/kg/injection, schedule: Q04DX003 (ip), vehicle: saline)?
**A.** 532 % of control

**Q.** What about the T/C (dose: 1.8 mg/kg/injection, schedule: Q04DX003 (ip), vehicle: clinical formulation) of the same compound?
**A.** 113 % of control

**Q.** And the T/C (dose: 2.0 mg/kg/injection, schedule: Q01DX001 (ip), vehicle: water)?
**A.** 168 % of control

**Q.** And the T/C (dose: 2.0 mg/kg/injection, schedule: Q04DX003 (ip), vehicle: saline)?
**A.** 116 % of control

**Q.** What about the T/C (dose: 2.47 mg/kg/injection, schedule: Q04DX003 (ip), vehicle: saline) of the same compound?
**A.** 166 % of control

**Q.** And the T/C (dose: 4.0 mg/kg/injection, schedule: Q01DX001 (ip), vehicle: saline)?
**A.** 235 % of control and 163 % of control

**Q.** What about the T/C (dose: 4.0 mg/kg/injection, schedule: Q04DX003 (ip), vehicle: water) of the same compound?
**A.** 111 % of control

**Q.** What about the T/C (dose: 15.6 micrograms/kg/injection, schedule: Q03HX008 (ip), vehicle: clinical formulation) of the same compound?
**A.** 157 % of control

**Q.** What about the T/C (dose: 15.6 micrograms/kg/injection, schedule: Q03HX016 (ip), vehicle: clinical formulation) of the same compound?
**A.** 185 % of control

**Q.** And the T/C (dose: 31.2 micrograms/kg/injection, schedule: Q03HX008 (ip), vehicle: clinical formulation)?
**A.** 185 % of control

**Q.** What about the T/C (dose: 31.2 micrograms/kg/injection, schedule: Q03HX024 (ip), vehicle: clinical formulation) of the same compound?
**A.** 233 % of control

**Q.** And the T/C (dose: 62.0 micrograms/kg/injection, schedule: Q03HX024 (ip), vehicle: saline)?
**A.** 255 % of control

**Q.** And the T/C (dose: 62.5 micrograms/kg/injection, schedule: Q03HX016 (ip), vehicle: clinical formulation)?
**A.** 257 % of control

**Q.** And the T/C (dose: 62.5 micrograms/kg/injection, schedule: Q04DX003 (ip), vehicle: clinical formulation)?
**A.** 166 % of control

**Q.** What about the T/C (dose: 125.0 micrograms/kg/injection, schedule: Q03HX016 (ip), vehicle: clinical formulation) of the same compound?
**A.** 314 % of control

**Q.** And the T/C (dose: 125.0 micrograms/kg/injection, schedule: Q03HX024 (ip), vehicle: saline)?
**A.** 370 % of control

**Q.** What about the T/C (dose: 125.0 micrograms/kg/injection, schedule: Q04DX003 (ip), vehicle: clinical formulation) of the same compound?
**A.** 180 % of control

**Q.** And the T/C (dose: 125.0 micrograms/kg/injection, schedule: Q08DX002 (ip), vehicle: clinical formulation)?
**A.** 171 % of control

**Q.** What about the T/C (dose: 250.0 micrograms/kg/injection, schedule: Q01DX001 (ip), vehicle: clinical formulation) of the same compound?
**A.** 161 % of control

**Q.** And the T/C (dose: 250.0 micrograms/kg/injection, schedule: Q01DX009 (ip), vehicle: clinical formulation)?
**A.** 242 % of control

**Q.** And the T/C (dose: 250.0 micrograms/kg/injection, schedule: Q03HX008 (ip), vehicle: clinical formulation)?
**A.** 247 % of control

**Q.** What about the T/C (dose: 250.0 micrograms/kg/injection, schedule: Q03HX024 (ip), vehicle: saline) of the same compound?
**A.** 90 % of control

**Q.** And the T/C (dose: 250.0 micrograms/kg/injection, schedule: Q08DX002 (ip), vehicle: clinical formulation)?
**A.** 176 % of control

**Q.** And the T/C (dose: 360.0 micrograms/kg/injection, schedule: Q04DX003 (ip), vehicle: saline)?
**A.** 182 % of control

**Q.** What about the T/C (dose: 432.0 micrograms/kg/injection, schedule: Q04DX003 (ip), vehicle: saline) of the same compound?
**A.** 249 % of control

**Q.** And the T/C (dose: 500.0 micrograms/kg/injection, schedule: Q01DX001 (ip), vehicle: clinical formulation)?
**A.** 152 % of control

**Q.** And the T/C (dose: 500.0 micrograms/kg/injection, schedule: Q03HX016 (ip), vehicle: clinical formulation)?
**A.** 123 % of control

**Q.** And the T/C (dose: 500.0 micrograms/kg/injection, schedule: Q04DX003 (ip), vehicle: clinical formulation)?
**A.** 228 % of control

**Q.** What about the T/C (dose: 500.0 micrograms/kg/injection, schedule: Q04DX003 (ip), vehicle: saline) of the same compound?
**A.** 248 % of control

**Q.** What about the T/C (dose: 500.0 micrograms/kg/injection, schedule: Q08DX002 (ip), vehicle: clinical formulation) of the same compound?
**A.** 180 % of control

**Q.** What about the T/C (dose: 540.0 micrograms/kg/injection, schedule: Q04DX003 (ip), vehicle: saline) of the same compound?
**A.** 240 % of control and 272 % of control

**Q.** What about the T/C (dose: 600.0 micrograms/kg/injection, schedule: Q01DX009 (ip), vehicle: saline) of the same compound?
**A.** 120 % of control

**Q.** What about the T/C (dose: 600.0 micrograms/kg/injection, schedule: Q04DX003 (ip), vehicle: saline) of the same compound?
**A.** 250 % of control and 182 % of control

**Q.** And the T/C (dose: 648.0 micrograms/kg/injection, schedule: Q04DX003 (ip), vehicle: saline)?
**A.** 254 % of control

**Q.** And the T/C (dose: 720.0 micrograms/kg/injection, schedule: Q04DX003 (ip), vehicle: saline)?
**A.** 225 % of control and 291 % of control

**Q.** And the T/C (dose: 900.0 micrograms/kg/injection, schedule: Q04DX003 (ip), vehicle: saline)?
**A.** 280 % of control and 322 % of control

**Q.** And the T/C (dose: 1000.0 micrograms/kg/injection, schedule: Q04DX003 (ip), vehicle: clinical formulation)?
**A.** 571 % of control

**Q.** What about the T/C (dose: 1000.0 micrograms/kg/injection, schedule: Q08DX002 (ip), vehicle: clinical formulation) of the same compound?
**A.** 228 % of control

**Q.** What about the T/C (dose: 1080.0 micrograms/kg/injection, schedule: Q04DX003 (ip), vehicle: saline) of the same compound?
**A.** 292 % of control

**Q.** And the T/C (dose: 1200.0 micrograms/kg/injection, schedule: Q04DX003 (ip), vehicle: saline)?
**A.** 225 % of control and 116 % of control

**Q.** And the T/C (dose: 1500.0 micrograms/kg/injection, schedule: Q04DX003 (ip), vehicle: saline)?
**A.** 278 % of control and 320 % of control

**Q.** What about the T/C (dose: 1800.0 micrograms/kg/injection, schedule: Q04DX003 (ip), vehicle: saline) of the same compound?
**A.** 294 % of control

**Q.** And the T/C (dose: 2000.0 micrograms/kg/injection, schedule: Q04DX003 (ip), vehicle: clinical formulation)?
**A.** 95 % of control

**Q.** And the T/C (dose: 2000.0 micrograms/kg/injection, schedule: Q08DX002 (ip), vehicle: clinical formulation)?
**A.** 300 % of control

**Q.** And the T/C (dose: 4000.0 micrograms/kg/injection, schedule: Q01DX001 (ip), vehicle: clinical formulation)?
**A.** 233 % of control

**Q.** And the T/C (dose: 4000.0 micrograms/kg/injection, schedule: Q08DX002 (ip), vehicle: clinical formulation)?
**A.** 238 % of control
